Experimental findings from US4902685A, “2-amino-3-cyano-bicyclic pyridines/pyrazines as inhibitors of interleukin 1” (American Home Products Corporation, priority 1988, dated 1990) are described below.

The subject of the first assay is IL 1-induced release of neutral protease from rabbit articular chondrocytes. The assay is described as follows: inhibition of IL 1-induced release of neutral protease from rabbit articular chondrocytes (azocoll assay). The conditions noted are these: Oryctolagus cuniculus, Chondrocyte; dose 1 μM; human IL 1; 24 h; relative to vehicle-treated chondrocytes; read-out: % Inhibition (I.S.D.). Type of assay: cell-based. The method, then:
The ability of the compounds of the inventions to inhibit interleukin 1 is measured by the ability of the test compounds to inhibit the IL 1-induced release of neutral protease from rabbit articular chondrocytes.
This assay is carried out as follows:
Isolation of rabbit chondrocytes:
Male New Zealand White rabbits are anesthetized with 50 mg/kg of ketamine (i.m.) and killed by an intracardiac injection of 3 mls. of Nembutal. The knee joints of both legs are resected and the articular surfaces are exposed. Cartilate slices are obtained using a scalpel and are placed in a tissue culture dish (100 mm diameter) containing 10 mls of Hank's balanced salt solution (HBSS). The chrondrocytes within the cartilage slices are then liberated by a series of enzyme digestions. The slices are incubated for 10 min. at 37° C. in 0.05% hyaluronidase (Sigma H-3884), rinsed with HBSS and incubated with 0.2% trypsin (Sigma T-2395)for 10 min. at 37° C. The slices are rinsed again and incubated for 10 mins. at 37° C. with 1.2% collagenase (Sigma C-5138). The slices are then rinsed again with HBSS and resuspended in 10 ml of Ham's F-12 medium containing 10% fetal bovine calf serum (FCS) and 0.2% collagenase and incubated overnight at 37° C. in a 5% CO2 incubator. The next day, the medium containing the digested cartilage fragments and liberated chondrocytes is transferred to a 15 ml centrifuge tube and the cells are collected by centrifugation and washed twice and resuspended in Ham's F-12 medium. The cells are then placed into 24-well tissue culture plates (2×10^5 cells/well) and incubated at 37° C. until confluent (usually 4-6 days).
Stimulation of chondrocytes and drug treatment:
The confluent chondrocytes are rinsed twice with serum-free Ham's F-12 medium and 1 ml is added to each well. Fifty μl of purified human IL 1 (100 Units/ml; Genzyme Corporation, Boston, MA) is then added to stimulate these cells to secrete neutral protease. To measure drug effects, the cells are treated with test compound 10 min. prior to addition of IL 1. The standard screening dose is 10 μM. Twenty-four hours after IL 1 stimulation, supernatant fluids are collected and assayed for neutral protease activity.
The neutral protease activity of chrondrocyte supernatant fluids is determined by their ability to degrade an insoluble protease substrate, azocoll (Sigma). Supernatants are treated for 10 min. at room temperature with 350 μM p-aminophenylmercuric acetate to activate the latent enzyme. Three hundred μl of supernatant is then mixed with 500 μl of a 20 mg/ml suspension of azocoll and incubated at 37° C. for 18-24 hrs. with gentle rocking. The mixtures are centrifuged and the amount of substrate hydrolyzed is determined by measuring the absorbance of the supernatant at 520 nm.
Drug effects are calculated as the % change in enzyme activity (absorbance)by supernatants from drug-treated chrondrocytes relative to enzyme activity of supernatants from vehicle-treated chondrocytes as follows: [formula]
In the case of `N#Cc1cc2c(nc1N)CCCC2` [Example 5, 2-Amino-5,6,7,8-tetrahydro-3-quinolinecarbonitrile], the inhibition at 1 µM was 60%.

The assay is the same for the next values; noted with them: Oryctolagus cuniculus, Chondrocyte; dose 10 μM; human IL 1; 24 h; relative to vehicle-treated chondrocytes; read-out: % Inhibition (I.S.D.).
`N#Cc1ccc(N2CCc3nc(N)c(C#N)cc3C2)cc1` [Example 1, 2-Amino-6-(4-cyanophenyl)-5,6,7,8-tetrahydro-1,6-naphthyridine-3-carbonitrile]: the inhibition at 10 µM came to 18%.

Regarding `N#Cc1ccc(N2CCc3nc(N)c(C#N)nc3C2)cc1` [Example 2, 2-Amino-6-(4-cyanophenyl)-5,6,7,8-tetrahydropyrido[3,4-b]pyrazine-3-carbonitrile], the inhibition at 10 µM was 37%.

On to `CS(=O)(=O)c1ccc(N2CCc3nc(N)c(C#N)cc3C2)cc1` [Example 3, 2-Amino-5,6,7,8-tetrahydro-6-[4-(methylsulfonyl)phenyl]-1,6-naphthyridine-3-carbonitrile], for which the inhibition at 10 µM turned out to be 59%.

On to `N#Cc1nc2c(nc1N)CCCC2` [Example 4, 2-Amino-5,6,7,8-tetrahydro-3-quinoxalinecarbonitrile], for which the inhibition at 10 µM came out at 41%.

On to `N#Cc1cc2c(nc1N)CCCC2` [Example 5, 2-Amino-5,6,7,8-tetrahydro-3-quinolinecarbonitrile], for which the inhibition at 10 µM was found to be 59%.

One may read the inhibition as the change of the read-out against control, counted positive when it falls.
